From publication PMC8637149 (Heliyon, 2021)

Experiments:
[1] = biological target: T1, ZmPEPC-C4 (Zea mays, UniProt Q84KR7); test: near-UV CD and limited trypsin proteolysis; type: binding; conditions: 15 mM G6P, pH 7.3; allosteric activator; no effect on ANS fluorescence
T1 sequence (Q84KR7 1-970): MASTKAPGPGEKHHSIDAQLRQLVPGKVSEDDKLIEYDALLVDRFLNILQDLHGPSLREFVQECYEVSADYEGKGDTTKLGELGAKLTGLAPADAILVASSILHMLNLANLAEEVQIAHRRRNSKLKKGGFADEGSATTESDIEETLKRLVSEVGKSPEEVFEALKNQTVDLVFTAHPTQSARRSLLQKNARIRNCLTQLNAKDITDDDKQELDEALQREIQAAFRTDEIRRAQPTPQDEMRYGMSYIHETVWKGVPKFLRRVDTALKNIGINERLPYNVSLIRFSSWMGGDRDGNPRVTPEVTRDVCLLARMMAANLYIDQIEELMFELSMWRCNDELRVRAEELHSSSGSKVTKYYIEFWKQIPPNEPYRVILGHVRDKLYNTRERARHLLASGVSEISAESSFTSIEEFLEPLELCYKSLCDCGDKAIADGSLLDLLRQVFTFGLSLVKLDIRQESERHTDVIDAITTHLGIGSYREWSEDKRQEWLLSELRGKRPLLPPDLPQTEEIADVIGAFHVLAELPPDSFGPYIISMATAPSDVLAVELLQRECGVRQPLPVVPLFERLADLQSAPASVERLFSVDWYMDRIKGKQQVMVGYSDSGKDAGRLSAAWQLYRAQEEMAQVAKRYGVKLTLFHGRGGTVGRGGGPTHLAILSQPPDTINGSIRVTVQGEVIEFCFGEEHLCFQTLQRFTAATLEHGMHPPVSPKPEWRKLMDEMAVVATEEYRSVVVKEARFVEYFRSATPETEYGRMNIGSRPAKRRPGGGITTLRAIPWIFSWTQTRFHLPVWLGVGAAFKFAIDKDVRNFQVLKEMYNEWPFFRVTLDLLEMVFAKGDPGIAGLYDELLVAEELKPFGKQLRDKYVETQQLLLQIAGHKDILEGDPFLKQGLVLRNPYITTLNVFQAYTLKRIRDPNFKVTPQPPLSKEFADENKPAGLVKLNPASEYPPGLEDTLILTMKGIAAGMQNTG

[2] = biological target: T1, ZmPEPC-C4; test: ANS fluorescence titration, emission […] nm; type: binding
[3] = biological target: T1, ZmPEPC-C4; test: coupled malic dehydrogenase assay, NADH oxidation at […] nm; type: biochemical; conditions: read-out: % inhibition at 10 mM
[4] = biological target: T1, ZmPEPC-C4; test: quenching of ANS-enzyme fluorescence at […] nm, Hill-type fit; type: binding

O=P(O)(O)OC[C@H]1OC(O)[C@H](O)[C@@H](O)[C@@H]1O (stereo partly shown) [G6P]
near-UV CD and limited trypsin proteolysis [1]: differences were also observed in the CD spectra of the E-PEP, E-G6P, and E-Gly complexes

O=S(=O)(O)c1cccc2cccc(Nc3ccccc3)c12 [ANS]
Kd [2]: 14.5 ± 1.5 µM

O=C(O)C[C@H](O)C(=O)O [malate]
inhibition at 10000 µM [3]: 84.5 ± 0.2%
Kd [4]: 360 ± 70 µM
